In patent publication US20250255791A1, “POWDER COSMETIC CONTAINING ULTRAVIOLET WAVELENGTH-CONVERTING SUBSTANCE, AND METHOD FOR PRODUCING SAME” (Shiseido Company, Ltd., priority 2019, published 2025):

Legend:
[1] = system: Human dermal fibroblasts; assay: Experiment 3: restoration of cell activity decreased by prior UV irradiation (AlamarBlue); type: cell-based; details: pre-irradiation 400 mJ/cm^2 without substance, then UV 0-200 mJ/cm^2 through 0.4% or 2% solution; FIG. 5
Description: (§1) A cell sample was prepared as follows: 1. Human dermal fibroblasts and human skin keratinocytes purchased from Kurabo Industries Ltd. were used. A cell suspension (1 mL) stored in liquid nitrogen was thawed in a water bath (37° C.) to an extent that small ice pellets remained, and then diluted with 9 mL of warm medium. 2. The diluted suspension was mixed gently and then transferred to a T75 flask and incubated overnight at 37° C. 3. The next day, the medium was replaced with 10 mL of fresh medium. 4. The medium was replaced periodically (once every 2 days for fibroblasts and once every 2 to 3 days for keratinocytes) and cell proliferation was continued. Meanwhile, the cells were observed using a microscope, and it was confirmed that the cells grew in the correct form. 5. After the cells reached about 80% confluence, the cells were passaged. The cells were passaged by washing the cells once with 10 mL of warm PBS, adding 5 mL of warm trypsin to a T75 flask, covering the bottom of the flask with a trypsin solution, followed by aspirating at room temperature for 1 minute. 6. The flask was allowed to stand in an oven at 37° C. for (maximum) 2 minutes for fibroblasts and (maximum) 7 minutes for keratinocytes. The cells were observed using a microscope and confirmed to be small and oval. 7. Thereafter, the side of the T75 flask was lightly tapped to release the cells. […]

[2] = system: Human dermal fibroblasts; assay: Experiment 2: influence of C-phycocyanin concentration and UV intensity on cell activity (AlamarBlue); type: cell-based; details: UV 0-100 mJ/cm^2, FIG. 3
Description: as §1

## C-phycocyanin
[1]
  cell activity of cells whose activity was once decreased by UV irradiation: cell activity was recovered
[2]; 0.4% C-phycocyanin solution
  cell activity (relative fluorescence intensity) on UV irradiation: the decrease in cell activity was suppressed
[2]; 2% C-phycocyanin solution
  cell activity (relative fluorescence intensity) on UV irradiation versus no UV irradiation: the cell activity was even increased
